These results are taken from EPA's ToxRefDB 2.

The LOAEL is the lowest tested level that showed an adverse finding. For orientation: NOAEL means the highest tested level that showed no adverse finding.

Data set [1] deals with rat. The settings on record: Sub-acute repeat dose toxicity, sprague dawley, Oral, Gavage/Intubation, dose end: 14 day, group: systemic.
Data set [2] has as its system dog. The settings on record: Subchronic oral toxicity in nonrodent, beagle, Gavage/Intubation, dose end: 91 day, group: systemic.
Data set [3] has as its system rat. The settings on record: Subchronic oral toxicity in rodents, sprague dawley, Gavage/Intubation, dose end: 93 day, group: systemic.
Data set [4] deals with dog. Particulars: Sub-acute repeat dose toxicity; beagle; Oral; Gavage/Intubation; dose end: 14 day; group: systemic; systemic / clinical chemistry / [other] / [other].
The subject of data set [5] is rat. Particulars: Sub-acute repeat dose toxicity, sprague dawley, Oral, Gavage/Intubation, dose end: 10 day, group: systemic.
The test system of data set [6] is rat. The settings on record: Sub-acute repeat dose toxicity; Oral; Gavage/Intubation; dose end: 7 day; group: systemic; systemic / hematology / erythrocyte (rbc) count differential / erythrocyte (rbc) + systemic / hematology / hematocrit (hct) / hematocrit (….
The subject of data set [7] is rat. Particulars: Prenatal developmental toxicity study, other, Oral, Gavage/Intubation, dose end: 17 GD.
Data set [8] has as its system rabbit. The settings on record: Prenatal developmental toxicity study; new zealand white; Oral; Gavage/Intubation; dose end: 19 GD; group: maternal; systemic / in life observation / body weight / body weight + systemic / in life observation / body weight / body weight gain + systemic / in….
Data set [9] relates to rabbit. The settings on record: Prenatal developmental toxicity study, new zealand white, Oral, Gavage/Intubation, dose end: 19 GD.
Data set [10] deals with rat. Particulars: Prenatal developmental toxicity study, sprague dawley, Oral, Gavage/Intubation, dose end: 17 GD.
Data set [11] relates to rat. The settings on record: Combined chronic toxicity/carcinogenicity; fischer; Oral; Gavage/Intubation; dose end: 2 year; group: systemic; systemic / in life observation / mortality / mortality + systemic / pathology microscopic / lung / foreign body + systemic / pathology ….
Data set [12] relates to rat. Particulars: Subchronic oral toxicity in rodents, fischer, Gavage/Intubation, dose end: 13 week, group: systemic.
For data set [13], the system named is mouse. Particulars: Carcinogenicity, b6c3f1, Oral, Gavage/Intubation, dose end: 2 year, group: systemic.
The test system of data set [14] is mouse. Particulars: Subchronic oral toxicity in rodents, b6c3f1, Gavage/Intubation, dose end: 13 week, group: systemic.
For data set [15], the system named is rat. The settings on record: Multigenerational reproductive toxicity study, sprague dawley, Oral, Feed, dose end: 2 generation, group: parental.
The test system of data set [16] is dog. Particulars: Chronic toxicity; beagle; Oral; Feed; dose end: 52 week; group: systemic; systemic / organ weight / thyroid gland / absolute + systemic / organ weight / thyroid gland / relative to body weight + systemic / ….
The test system of data set [17] is rat. The settings on record: Subchronic oral toxicity in rodents, fischer, Feed, dose end: 13 week, group: systemic.
Data set [18] concerns mouse. Particulars: Sub-acute repeat dose toxicity; b6c3f1; Oral; Feed; dose end: 14 day; group: systemic; systemic / in life observation / clinical signs / fur (altered appearance) + systemic / in life observation / mortality / mortality.
Data set [19] deals with rat. Particulars: Sub-acute repeat dose toxicity; fischer; Oral; Feed; dose end: 14 day; group: systemic; systemic / in life observation / body weight / body weight gain + systemic / in life observation / clinical signs / urogenital staining + ….
Data set [20] relates to rat. Particulars: Subchronic oral toxicity in rodents, fischer, Feed, dose end: 13 week, group: systemic. The source holds these as a separate data set.
The test system of data set [21] is rat. Particulars: Carcinogenicity; fischer; Oral; Feed; dose end: 103 week; group: systemic; systemic / in life observation / body weight / body weight + systemic / pathology microscopic / eye / cataract + systemic / pathology ….
For data set [22], the system named is mouse. The settings on record: Carcinogenicity; b6c3f1; Oral; Feed; dose end: 103 week; group: systemic; systemic / in life observation / body weight / body weight.
Setting [23] is: systemic / clinical chemistry / [other] / [other] + systemic / in life observation / clinical signs / [other] + systemic / in life ….
The mark [24] stands for this setting: systemic / in life observation / clinical signs / [other].
Setting [25] is: systemic / in life observation / clinical signs / abnormal feces + systemic / in life observation / clinical signs / emesis.
Where [26] appears, read: systemic / in life observation / clinical signs / abnormal feces + systemic / in life observation / clinical signs / emesis + systemic / ….
Where [27] appears, read: systemic / in life observation / clinical signs / [other] + systemic / in life observation / clinical signs / salivation.
[28] abbreviates: systemic / in life observation / body weight / body weight gain + systemic / in life observation / food consumption / food consumption.
[29] abbreviates: systemic / in life observation / food consumption / food consumption.
Where [30] appears, read: group: developmental, systemic / in life observation / body weight / fetal weight.
Where [31] appears, read: group: maternal, systemic / in life observation / body weight / body weight + systemic / in life observation / food consumption / food consumption.
Where [32] appears, read: group: maternal, systemic / in life observation / body weight / body weight + systemic / in life observation / food consumption / food consumption + ….
[33] abbreviates: group: maternal, systemic / in life observation / body weight / body weight + systemic / in life observation / food consumption / food consumption + systemic….
[34] abbreviates: group: maternal, systemic / in life observation / food consumption / food consumption.
Where [35] appears, read: group: maternal, systemic / in life observation / food consumption / food consumption + reproductive / reproductive performance / postimplantation loss / ….
[36] abbreviates: systemic / in life observation / body weight / body weight.
[37] abbreviates: systemic / in life observation / body weight / body weight + systemic / in life observation / clinical signs / labored respiration + ….
The mark [38] stands for this setting: systemic / pathology microscopic / brain / corpora amylacea + systemic / pathology microscopic / adrenal gland / adenoma + systemic / ….
[39] abbreviates: systemic / in life observation / body weight / body weight + systemic / in life observation / clinical signs / unsteady gait.
The mark [40] stands for this setting: systemic / pathology microscopic / thyroid gland / hyperplasia + systemic / pathology microscopic / thyroid gland / hypertrophy + systemic….
Where [41] appears, read: systemic / in life observation / body weight / body weight + systemic / in life observation / food consumption / food consumption + systemic….
Where [42] appears, read: systemic / in life observation / body weight / body weight + systemic / pathology microscopic / thyroid gland / hyperplasia.
Where [43] appears, read: systemic / in life observation / body weight / body weight gain.
Setting [44] is: systemic / in life observation / body weight / body weight gain + systemic / in life observation / clinical signs / skin discoloration + ….

For `CCOc1ccc2[nH]cc(C(=O)NCc3ccccc3)c(=O)c2n1`, the LOAEL in data set [1] (setting [23]) is more than 198 mg/kg/day; in data set [2] (setting [26]), more than 80 mg/kg/day; in [3] (setting [27]), more than 240 mg/kg/day; in [4] it was more than 26 mg/kg/day; in data set [5] (setting [28]), more than 160 mg/kg/day; in [6] it was more than 240 mg/kg/day. Moreover, the NOAEL in data set [1] (setting [23]) was not below 198 mg/kg/day; in data set [2] (setting [26]), not below 80 mg/kg/day; in [3] (setting [27]), not below 240 mg/kg/day; in data set [4], not below 26 mg/kg/day; in data set [5] (setting [28]), not below 160 mg/kg/day; in data set [6], not below 240 mg/kg/day. The LEL stood at 10 mg/kg/day in data set [1] (setting [24]); 1 mg/kg/day in data set [2] (setting [25]); 10 mg/kg/day in data set [3] (setting [24]); 26 mg/kg/day in data set [4]; 5 mg/kg/day in data set [5] (setting [29]); 240 mg/kg/day in data set [6]. Also, the NEL is less than 10 mg/kg/day in data set [1] (setting [24]); less than 1 mg/kg/day in [2] (setting [25]); less than 10 mg/kg/day in data set [3] (setting [24]); 6 mg/kg/day in data set [4]; less than 5 mg/kg/day in [5] (setting [29]); less than 240 mg/kg/day in data set [6].
For `CCCOc1sc(C(=O)N2CCC(c3cc(CN)ccc3F)CC2)c(C)c1Br.Cl` [AVE8923], the LEL in [7] (setting [30]) is 100 mg/kg/day; in data set [7] (setting [32]) it was 100 mg/kg/day; in [8], 50 mg/kg/day; in data set [9] (setting [30]), 200 mg/kg/day; in data set [9] (setting [33]), 200 mg/kg/day; in data set [10] (setting [30]), 75 mg/kg/day. Further, the LEL in data set [10] (setting [34]) stood at 75 mg/kg/day. The LOAEL in [7] (setting [30]) was 100 mg/kg/day; in data set [7] (setting [32]), 100 mg/kg/day; in [8], more than 300 mg/kg/day; in data set [9] (setting [30]), more than 200 mg/kg/day; in data set [9] (setting [33]), more than 200 mg/kg/day; in data set [10] (setting [30]), 75 mg/kg/day. The LOAEL in data set [10] (setting [34]) is 75 mg/kg/day. Besides, the NEL in data set [7] (setting [30]) was 25 mg/kg/day; in data set [7] (setting [31]) it was 25 mg/kg/day; in [8], less than 50 mg/kg/day; in data set [9] (setting [30]), 100 mg/kg/day; in [9] (setting [33]), 100 mg/kg/day; in data set [10] (setting [30]), 25 mg/kg/day. The NEL in [10] (setting [35]) is 25 mg/kg/day. Besides, the NOAEL in data set [7] (setting [30]) is 25 mg/kg/day; in [7] (setting [31]), 25 mg/kg/day; in data set [8], not below 300 mg/kg/day; in data set [9] (setting [30]), not below 200 mg/kg/day; in data set [9] (setting [33]), not below 200 mg/kg/day; in data set [10] (setting [30]) it was 25 mg/kg/day. Also, the NOAEL in data set [10] (setting [35]) stood at 25 mg/kg/day.
Consider `OCc1ccccc1` [Benzyl alcohol], for which the LEL in data set [11] worked out at 200 mg/kg/day; in data set [12] (setting [36]), 200 mg/kg/day; in [13] (setting [38]), 200 mg/kg/day; in data set [14] (setting [36]), 400 mg/kg/day. Moreover, the LOAEL was more than 400 mg/kg/day in [11], 400 mg/kg/day in data set [12] (setting [36]), more than 200 mg/kg/day in [13] (setting [38]) and 800 mg/kg/day in data set [14] (setting [39]). Moreover, the NEL is less than 200 mg/kg/day in data set [11], 100 mg/kg/day in [12] (setting [37]), 100 mg/kg/day in data set [13] (systemic / pathology microscopic / brain / corpora amylacea) and 200 mg/kg/day in [14] (setting [39]). The NOAEL in data set [11] was not below 400 mg/kg/day; in data set [12] (setting [37]), 200 mg/kg/day; in [13] (setting [38]) it was not below 200 mg/kg/day; in data set [14] (setting [39]), 400 mg/kg/day.
`S=C1NCCN1` [Ethylene thiourea]: the LOAEL in [15] (systemic / pathology microscopic / thyroid gland / hyperplasia + systemic / pathology microscopic / thyroid gland / hypertrophy) was 1.25 mg/kg/day; in data set [16], 1.79 mg/kg/day; in data set [17] (setting [41]), more than 150 mg/kg/day. The figures for the LEL in [15] (setting [40]), in data set [16] and in data set [17] (setting [42]) were 1.25 mg/kg/day, 1.79 mg/kg/day and 12 mg/kg/day, respectively. The NEL in data set [15] (setting [40]) was 0.125 mg/kg/day; in [16], 0.19 mg/kg/day; in data set [17] (setting [42]), less than 12 mg/kg/day. For the same compound, the results for the NOAEL in data set [15] (setting [40]), in data set [16] and in data set [17] (setting [41]) were 0.125 mg/kg/day, 0.19 mg/kg/day and not below 150 mg/kg/day, respectively.
In the case of `CCCOC(=O)c1cc(O)c(O)c(O)c1` [Propyl gallate], the LEL worked out at 7500 mg/kg/day in [18]; 2500 mg/kg/day in data set [19]; 625 mg/kg/day in data set [20] (setting [43]); 300 mg/kg/day in [21]; 900 mg/kg/day in [22]. Besides, the LOAEL is more than 15000 mg/kg/day in data set [18]; more than 5000 mg/kg/day in data set [19]; 625 mg/kg/day in [20] (setting [43]); 300 mg/kg/day in [21]; 900 mg/kg/day in [22]. The NEL in [18] is 3750 mg/kg/day; in [19], 1250 mg/kg/day; in [20] (setting [44]), 300 mg/kg/day; in data set [21] it was less than 300 mg/kg/day; in [22], less than 900 mg/kg/day. Further, the NOAEL in [18] was not below 15000 mg/kg/day; in [19], not below 5000 mg/kg/day; in [20] (setting [44]), 300 mg/kg/day; in [21] it was less than 300 mg/kg/day; in data set [22], less than 900 mg/kg/day.
